# Experiments:
# ACSS2 [1] = target: T1, ACSS2 (Homo sapiens, UniProt Q9NR19); test: biochemical
# ACSS2 [2] = target: T1, ACSS2; test: cell-based
# Method: Testing the inhibitory effect of compounds on the cellular activity of ACSS2 was done by tracing the incorporation of ^13C from ^13C-acetate into fatty-acids in MDA-MB-468 cells under hypoxic conditions of 1% 02. The assay was done for 5 hours in DMEM with 5.5 mM glucose, 1 mM sodium Pyruvate, 0.65 mM Glutamine, 3.5 ug/ml Biotin, 1% dialyzed serum, 0.5 mM 13C-acetate and with different concentrations of the inhibitors. At the end of the incubation, the cells were washed with cold PBS, harvested into glass tubes and undergo saponification. The level of ^13C incorporation into Palmitate was done by LC-MS analysis and the level of inhibition was calculated with PRISM software.
# T1 sequence (Q9NR19 whole entry): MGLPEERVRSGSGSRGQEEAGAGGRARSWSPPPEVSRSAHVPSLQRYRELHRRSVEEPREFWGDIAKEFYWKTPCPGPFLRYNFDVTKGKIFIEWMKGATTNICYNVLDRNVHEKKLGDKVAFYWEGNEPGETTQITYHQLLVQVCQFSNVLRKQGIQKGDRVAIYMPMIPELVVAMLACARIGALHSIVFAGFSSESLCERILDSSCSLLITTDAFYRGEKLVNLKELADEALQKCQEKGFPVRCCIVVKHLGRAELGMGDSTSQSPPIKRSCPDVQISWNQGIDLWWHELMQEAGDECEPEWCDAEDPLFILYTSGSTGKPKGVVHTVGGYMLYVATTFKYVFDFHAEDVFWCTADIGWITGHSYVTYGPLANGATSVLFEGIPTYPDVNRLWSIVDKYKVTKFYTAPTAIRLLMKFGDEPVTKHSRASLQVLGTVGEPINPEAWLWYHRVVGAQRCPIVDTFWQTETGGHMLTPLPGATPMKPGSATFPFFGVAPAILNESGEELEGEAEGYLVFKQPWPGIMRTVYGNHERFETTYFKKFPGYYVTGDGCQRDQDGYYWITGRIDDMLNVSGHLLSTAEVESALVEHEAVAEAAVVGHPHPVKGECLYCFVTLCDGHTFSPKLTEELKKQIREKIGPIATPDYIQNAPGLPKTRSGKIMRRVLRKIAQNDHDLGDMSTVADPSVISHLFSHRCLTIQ
SMILES,IC50 (ACSS2 [1]) [nM],IC50 (ACSS2 [2]) [nM]
COc1cccc(N2N=C(C)C(C(=O)Nc3cccc(-c4ncc[nH]4)c3)C2=O)c1 (centres unmarked) [compound 248],0.01 to 6,> 100
CCCOc1ccc(N2N=C(C)C(C(=O)Nc3cccc(C(C)(F)F)c3)C2=O)cc1 (centres unmarked) [compound 317],–,0.5 to 50
CC1=NN(c2ccc(OC3CCCCC3)cc2)C(=O)C1C(=O)Nc1cccc(C(C)(F)F)c1 (centres unmarked) [compound 322],–,0.5 to 50
COC(=O)c1cccc(N2N=C(C)C(C(=O)Nc3cccc(-c4ncc[nH]4)c3)C2=O)c1 (centres unmarked) [compound 167],0.01 to 6,> 100
COc1ccc(N2N=C(C)C(C(=O)Nc3cccc(C(C)(F)F)c3)C2=O)c(F)c1 (centres unmarked) [compound 314],–,0.5 to 50
CC1=NN(c2ccc(OC(C)C)cc2)C(=O)C1C(=O)Nc1cccc(C(C)(F)F)c1 (centres unmarked) [compound 318],–,0.5 to 50
COC(=O)c1cccc(N2N=C(C)C(C(=O)Nc3cccc(-c4cnccn4)c3)C2=O)c1 (centres unmarked) [compound 164],0.01 to 6,> 100
COc1ccc(N2N=C(C)C(C(=O)Nc3cccc(C(C)(F)F)c3)C2=O)c(C(C)(C)C)c1 (centres unmarked) [compound 305],–,> 100
CC1=NN(c2cccc(S(=O)(=O)N(C)C)c2)C(=O)C1C(=O)Nc1cccc(-c2ccco2)c1 (centres unmarked) [compound 263],6 to 100,0.5 to 50
CC1=NN(c2cccc(C(F)(F)F)c2)C(=O)C1C(=O)Nc1cccc(C(C)(F)F)c1 (centres unmarked) [compound 271],0.01 to 6,0.5 to 50
COc1ccc(N2N=C(C)C(C(=O)Nc3cccc(C(C)(F)F)c3)C2=O)cc1-c1ncco1 (centres unmarked) [compound 301],0.01 to 6,0.5 to 50
COc1ccc(N2N=C(C)C(C(=O)Nc3cccc(C(C)(F)F)c3)C2=O)nc1 (centres unmarked) [compound 304],0.01 to 6,0.5 to 50
CC1=NN(c2cccc(C(=O)OC(C)C)c2)C(=O)C1C(=O)Nc1cccc(-c2cnccn2)c1 (centres unmarked) [compound 234],0.01 to 6,> 100
COc1ccc(N2N=C(C)C(C(=O)Nc3cccc(-c4cnccn4)c3)C2=O)cn1 (centres unmarked) [compound 243],0.01 to 6,> 100
CC1=NN(c2ccc(OC3CCC3)cc2)C(=O)C1C(=O)Nc1cccc(C(C)(F)F)c1 (centres unmarked) [compound 325],–,0.5 to 50
COc1ccc(N2N=C(C)C(C(=O)Nc3cccc(C(C)(F)F)c3)C2=O)cc1-c1ccccn1 (centres unmarked) [compound 331],–,0.5 to 50
"CC(=O)Cc1cccc(NC(=O)C2C(=O)N(c3ccccc3)N=C2C)c1 (centres unmarked) [compound 145, 3-methyl-5-oxo-N-(3-(2-oxopropyl)phenyl)-1-phenyl-4,5-dihydro-1H-pyrazole-4-carboxamide]",0.01 to 6,> 100
CC1=NN(c2cccc(C(=O)OC(C)C)c2)C(=O)C1C(=O)Nc1cccc(-c2ccco2)c1 (centres unmarked) [compound 237],6 to 100,> 100
CC1=NN(c2ccc(OC(F)F)cc2)C(=O)C1C(=O)Nc1cc(C(C)(F)F)ccc1CO (centres unmarked) [compound 306],–,0.5 to 50
COc1ccc(N2N=C(C)C(C(=O)Nc3cccc(C(C)(F)F)c3)C2=O)cn1 (centres unmarked) [compound 242],0.01 to 6,0.5 to 50
CC1=NN(c2ccc(OC(F)F)c(-c3cccnc3)c2)C(=O)C1C(=O)Nc1cccc(C(C)(F)F)c1 (centres unmarked) [compound 310],–,0.5 to 50
CC1=NN(c2ccc(OC(F)F)c(-c3ccncc3)c2)C(=O)C1C(=O)Nc1cccc(C(C)(F)F)c1 (centres unmarked) [compound 315],–,0.5 to 50

SMILES,IC50 (ACSS2 [1]) [nM],IC50 (ACSS2 [2]) [nM]
CC1=NN(c2ccc(OC(F)F)c(-c3cncnc3)c2)C(=O)C1C(=O)Nc1cccc(C(C)(F)F)c1 (centres unmarked) [compound 316],–,0.5 to 50
CC1=NN(c2cccc(S(=O)(=O)N(C)C)c2)C(=O)C1C(=O)Nc1cccc(C(C)(F)F)c1 (centres unmarked) [compound 252],0.01 to 6,50 to 100
COc1ccc(N2N=C(C)C(C(=O)Nc3cccc(C(C)(F)F)c3)C2=O)cc1-c1nccn1C (centres unmarked) [compound 300],0.01 to 6,0.5 to 50
COc1cccc(N2N=C(C)C(C(=O)Nc3cccc(-c4ncco4)c3)C2=O)c1 (centres unmarked) [compound 251],6 to 100,50 to 100
CCC(C)Oc1ccc(N2N=C(C)C(C(=O)Nc3cccc(C(C)(F)F)c3)C2=O)cc1 (centres unmarked) [compound 321],–,0.5 to 50
CC1=NN(c2ccc(OC(F)F)c(-c3ccccn3)c2)C(=O)C1C(=O)Nc1cccc(C(C)(F)F)c1 (centres unmarked) [compound 327],–,0.5 to 50
CCC(F)(F)c1cccc(NC(=O)C2C(=O)N(c3ccc(OC)cc3)N=C2C)c1 (centres unmarked) [compound 330],–,0.5 to 50
CC1=NN(c2ccc(OC3CCCC3)cc2)C(=O)C1C(=O)Nc1cccc(C(C)(F)F)c1 (centres unmarked) [compound 319],–,0.5 to 50
COc1ccc(N2N=C(C)C(C(=O)Nc3cccc(C(C)(F)F)c3)C2=O)cc1-c1cccnc1 (centres unmarked) [compound 320],–,0.5 to 50
CC1=NN(c2ccc(OC(F)F)c(-c3ccccc3)c2)C(=O)C1C(=O)Nc1cccc(C(C)(F)F)c1 (centres unmarked) [compound 312],–,50 to 100
COc1ccc(N2N=C(C)C(C(=O)Nc3cccc(C(C)(F)F)c3)C2=O)cc1-c1cnccn1 (centres unmarked) [compound 332],–,0.5 to 50
CC1=NN(c2ccc(C3CC3)cc2)C(=O)C1C(=O)Nc1cccc(C(C)(F)F)c1 (centres unmarked) [compound 308],–,0.5 to 50
CC1=NN(c2ccc(OC(F)F)cc2F)C(=O)C1C(=O)Nc1cccc(C(C)(F)F)c1 (centres unmarked) [compound 309],–,0.5 to 50
CC1=NN(c2ccc(OC3COC3)cc2)C(=O)C1C(=O)Nc1cccc(C(C)(F)F)c1 (centres unmarked) [compound 326],–,0.5 to 50
COc1ccc(N2N=C(C)C(C(=O)Nc3cccc(C(C)(F)F)c3)C2=O)cc1-c1cncnc1 (centres unmarked) [compound 323],–,0.5 to 50
CC1=NN(c2ccc(OC(C)(C)C)cc2)C(=O)C1C(=O)Nc1cccc(C(C)(F)F)c1 (centres unmarked) [compound 324],–,0.5 to 50
CC1=NN(c2ccccc2)C(=O)C1C(=O)Nc1ccc2[nH]cnc2c1 (centres unmarked) [compound 278],1000 to 100000,–
CC1=NN(c2ccc(OC(F)F)c(-c3cnccn3)c2)C(=O)C1C(=O)Nc1cccc(C(C)(F)F)c1 (centres unmarked) [compound 328],–,0.5 to 50
"CC1=NN(c2ccc(C(F)(F)F)cc2)C(=O)C1C(=O)Nc1ccccc1 (centres unmarked) [compound 201, 3-methyl-5-oxo-N-phenyl-1-(4-(trifluoromethyl)phenyl)-4,5-dihydro-1H-pyrazole-4-carboxamide]",1000 to 100000,–
"CCc1cccc(NC(=O)C2C(=O)N(c3ccncc3)N=C2C)c1 (centres unmarked) [compound 125, N-(3-ethylphenyl)-3-methyl-5-oxo-1-(pyridin-4-yl)-4,5-dihydro-1H-pyrazole-4-carboxamide]",100 to 1000,–
COc1ccc(N2N=C(C)C(C(=O)Nc3cccc(C(C)(F)F)c3)C2=O)cc1-c1ccccc1 (centres unmarked) [compound 313],–,0.5 to 50
CC1=NN(c2cc(Cc3ccc(OCc4ccccc4)cc3)cc(-c3cccnc3)c2)C(=O)C1C(=O)Nc1cccc(C(C)(F)F)c1 (centres unmarked) [compound 373],100 to 1000,–

SMILES,IC50 (ACSS2 [1]) [nM],IC50 (ACSS2 [2]) [nM]
CCCn1ccc2ccc(N3N=C(C)C(C(=O)Nc4cccc(C(F)(F)CC)c4)C3=O)cc21 (centres unmarked) [compound 359],0.01 to 6,–
"CCc1cccc(NC(=O)C2C(=O)N(c3ccc([N+](=O)[O-])cc3)N=C2C)c1 (centres unmarked) [compound 153, N-(3-ethylphenyl)-3-methyl-1-(4-nitrophenyl)-5-oxo-4,5-dihydro-1H-pyrazole-4-carboxamide]",100 to 1000,–
CC1=NN(c2cc(C)cc(-c3ncco3)c2)C(=O)C1C(=O)Nc1cccc(C(C)(F)F)c1 (centres unmarked) [compound 420],0.01 to 6,–
CC1=NN(c2cc(Cc3ccccc3)cc(-c3ccccc3)c2)C(=O)C1C(=O)Nc1cccc(C(C)(F)F)c1 (centres unmarked) [compound 387],0.01 to 6,–
CC1=NN(c2ccncc2)C(=O)C1C(=O)Nc1cccc(-c2ncc[nH]2)c1 (centres unmarked) [compound 233],100 to 1000,–
"CC1=NN(C2CCS(=O)(=O)C2)C(=O)C1C(=O)Nc1ccccc1 (centres unmarked) [compound 202, 1-(1,1-dioxidotetrahydrothiophen-3-yl)-3-methyl-5-oxo-N-phenyl-4,5-dihydro-1H-pyrazole-4-carboxamide]",> 100000,–
Cc1nn(-c2ccc(OC(F)F)cc2)cc1C(=O)Nc1cccc(C(C)(F)F)c1 [compound 338],6 to 100,–
CC1=NN(c2ccc(OC3COC3)cc2)C(=O)C1C(=O)Nc1cccc(C(C)(F)F)c1 (centres unmarked) [compound 439],0.01 to 6,–
CC1=NN(c2cc(Cc3ccccc3Cl)cc(-c3cccnc3)c2)C(=O)C1C(=O)Nc1cccc(C(C)(F)F)c1 (centres unmarked) [compound 406],0.01 to 6,–
"CCc1cccc(NC(=O)C2C(=O)N(c3ccc(N)cc3)N=C2C)c1 (centres unmarked) [compound 154, 1-(4-aminophenyl)-N-(3-ethylphenyl)-3-methyl-5-oxo-4,5-dihydro-1H-pyrazole-4-carboxamide]",100 to 1000,–
CC1=NN(c2cccc(C(=O)O)c2)C(=O)C1C(=O)Nc1cccc(-c2ncco2)c1 (centres unmarked) [compound 170],6 to 100,–
"CC1=NN(c2ccc(C(F)(F)F)cc2)C(=O)C1C(=O)Nc1cccc(-c2ccco2)c1 (centres unmarked) [compound 162, N-(3-(furan-2-yl)phenyl)-3-methyl-5-oxo-1-(4-(trifluoromethyl)phenyl)-4,5-dihydro-1H-pyrazole-4-carboxamide]",6 to 100,–
CCCOc1ccc(N2N=C(C)C(C(=O)Nc3cccc(C(C)(F)F)c3)C2=O)cc1 (centres unmarked) [compound 448],0.01 to 6,–
CC1=NN(c2ccc(OC(F)F)cc2)C(=O)C1C(=O)Nc1cccc(C2COC2)c1 (centres unmarked) [compound 329],100 to 1000,–
CCC(F)(F)c1cccc(NC(=O)C2C(=O)N(c3ccc(OC(F)F)cn3)N=C2C)c1 (centres unmarked) [compound 383],0.01 to 6,–
"CC1=NN(c2ccccc2)C(=O)C1C(=O)Nc1cccc(C(C)C)c1 (centres unmarked) [compound 100, N-(3-isopropylphenyl)-3-methyl-5-oxo-1-phenyl-4,5-dihydro-1H-pyrazole-4-carboxamide]",100 to 1000,–
CCC(C)Oc1ccc(N2N=C(C)C(C(=O)Nc3cccc(C(C)(F)F)c3)C2=O)cc1 (centres unmarked) [compound 444],0.01 to 6,–
CC1=NN(c2cccc(C#CCNC(=O)COCCOCCOCC(=O)Nc3cccc4c3C(=O)N(C3CCC(=O)NC3=O)C4=O)c2)C(=O)C1C(=O)Nc1cccc(C(C)(F)F)c1 (centres unmarked) [compound 380],0.01 to 6,–
COc1cc(N2N=C(C)C(C(=O)Nc3cccc(C(C)(F)F)c3)C2=O)ccc1OC(F)F (centres unmarked) [compound 311],–,0.5 to 50
CC1=NN(c2ccc3ccn(C)c3c2)C(=O)C1C(=O)Nc1cccc(C(C)(F)F)c1 (centres unmarked) [compound 366],0.01 to 6,–
CC1=NN(c2ccc(OC(F)(F)F)cc2)C(=O)C1C(=O)Nc1cccc(C(C)(F)F)c1 (centres unmarked) [compound 226],–,50 to 100
